Data from PubChem BioAssay AID1552 (Sanford-Burnham Center for Chemical Genomics, 2009).
Active and inactive are the calls of the source. How the calls were made is not given here.

Each compound was assayed against Ubiquitin-conjugating enzyme E2 N (Homo sapiens) (UniProt P61088) (assay: UBE2N binders by NMR, biophysical, purified protein (AID 1552)). Details: NMR binding to purified UBE2N.
Ubiquitin-conjugating enzyme E2 N (Homo sapiens), sequence (P61088 whole entry, looked up): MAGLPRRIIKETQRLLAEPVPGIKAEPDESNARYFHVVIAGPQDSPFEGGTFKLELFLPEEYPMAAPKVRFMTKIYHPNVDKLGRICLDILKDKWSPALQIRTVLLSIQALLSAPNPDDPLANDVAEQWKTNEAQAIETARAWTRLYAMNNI
CC(C)(O)P(C)(=O)c1ccccc1 (configuration not stated) was tested, and the Kd was > 4 mM (inactive). COc1c(O)cc2c(c1O)[C@H]1O[C@H](CO)[C@@H](O)[C@H](O)[C@@H]1OC2=O was tested, and the Kd was > 4 mM (inactive). In the case of NC(=O)c1c(Cl)nsc1-c1ccccc1Cl, the Kd is reported as > 4 mM (inactive). With Nc1c(Nc2ccccc2)c2ccccc2oc1=O the Kd was > 4 mM (inactive). For Cc1cc(C(=O)N2CCN(c3ccccn3)CC2)no1, the Kd was > 4 mM (inactive). For Cc1cc(C)n2nc(N)nc2n1, the Kd was > 4 mM (inactive). With CC(C)CCn1cnc2c1c(=O)n(C)c(=O)n2C the Kd was > 4 mM (inactive). Cc1ccc2c(c1)CCCN2C(=O)c1ccncc1 was tested, and the Kd was > 4 mM (inactive). With COC(=O)c1c(C)c2c(c(C)c1O)OC(=O)c1c(C)c(Cl)c(O)c(Cl)c1O2 the Kd was > 4 mM (inactive). With COCC(=O)Nc1cc2c3c(c1)CCN3C(=O)CC2 the Kd was > 4 mM (inactive). For Cc1cc(C)n(CCC(=O)O)n1, the Kd was > 4 mM (inactive). In the case of COC(=O)[C@]1(C)CC[C@]2(C)CC[C@]3(C)C4=CCc5c(cc(O)c(O)c5C)[C@]4(C)CC[C@@]3(C)C2C1 (some centres not stated), the Kd is reported as > 4 mM (inactive). O=C1NC(=O)C(C(=S)Nc2ccccc2)C(=O)N1 was tested, and the Kd was > 4 mM (inactive). For CC(=O)O[C@H]1C[C@@H](OC(C)=O)C(C)(C)C2C[C@@H](OC(C)=O)[C@]3(C)C([C@H](OC(C)=O)C[C@@]4(C)[C@H](c5ccoc5)OC(=O)[C@H]5O[C@]543)[C@]21C (some centres not stated), the Kd was > 4 mM (inactive). FC(F)(F)c1nnc2ccc(N3CCOCC3)nn12 was tested, and the Kd was > 4 mM (inactive). With CC(C)c1ccc2c(c1)CCC1C(C)(C(N)=O)CCCC21C (configuration not stated) the Kd was > 4 mM (inactive). With Cc1nnc2sc(-c3ccco3)nn12 the Kd was > 4 mM (inactive). With CCOC12NC(=O)CC(=O)N1C(c1ccccc1)=CS2 (configuration not stated) the Kd was > 4 mM (inactive). CC(=O)c1ccc(-n2ccnc2)cc1 was tested, and the Kd was > 4 mM (inactive). With O=C(O)/C=C(\CC(=O)O)C(=O)O the Kd was > 4 mM (inactive). For C[C@@H]1O[C@@H](O[C@H]2C[C@@H](O)[C@]3(CO)C4C(CC[C@]3(O)C2)[C@@]2(O)CC[C@H](C3=CC(=O)OC3)[C@@]2(C)C[C@H]4O)[C@H](O)[C@H](O)[C@H]1O (some centres not stated), the Kd was > 4 mM (inactive). For CNC(=S)Nc1ncn(Cc2cccc(F)c2)n1, the Kd was > 4 mM (inactive). With O=C1NC(=S)NC(=O)C1=Cc1cccs1 the Kd was > 4 mM (inactive). For CC(C)c1c(O)c(-c2cc3c(c(C(C)C)c2O)CCC2C(C)(C)CCC[C@]32C)cc2c1CCC1C(C)(C)CCC[C@]21C (some centres not stated), the Kd was > 4 mM (inactive). With O=C1C2CCCCC2C(=O)N1c1ccc(O)cc1 (configuration not stated) the Kd was > 4 mM (inactive). With O=P(c1ccccc1)(c1ccccc1)C1CCOCC1 the Kd was > 4 mM (inactive). In the case of OC1CC(c2ccccc2)NC2(CCCC2)C1 (configuration not stated), the Kd is reported as > 4 mM (inactive). Cc1nc2ccccc2c(=O)n1NC(=O)Nc1ccccc1 was tested, and the Kd was > 4 mM (inactive). With Cn1cnnc1Sc1ncnc(N)c1[N+](=O)[O-] the Kd was > 4 mM (inactive). Cc1nc(NC(=O)c2cccnc2)ccc1Br was tested, and the Kd was > 4 mM (inactive). Cc1nnc(SCC(=O)NC2CCCC2)[nH]c1=O was tested, and the Kd was > 4 mM (inactive). In the case of Nc1ccccc1-n1cccn1, the Kd is reported as > 4 mM (inactive). For O=C(Nc1c[nH]c(=O)[nH]c1=O)c1cccs1, the Kd was > 4 mM (inactive). For O=C(O)CCn1c(=O)oc2ccccc21, the Kd was > 4 mM (inactive). In the case of Cc1c(-c2ccccc2)[n+](=O)c(-c2ccco2)c(C)n1[O-], the Kd is reported as > 4 mM (inactive). For CC1(C)C2C[C@@H](O)[C@]3(C)C(CC[C@@]4(C)[C@H](c5ccoc5)OC(=O)[C@H]5O[C@]543)[C@@]2(C)[C@@H](O)C[C@H]1O (some centres not stated), the Kd was > 4 mM (inactive). With O=c1c[n+]([O-])c2ccccc2n1OCc1ccccn1 the Kd was > 4 mM (inactive). O=C(Nc1cccc2cccnc12)c1cccnc1 was tested, and the Kd was > 4 mM (inactive). CC(=O)N1CC2(C)CN(C(C)=O)CC(C)(C1)C2O (configuration not stated) was tested, and the Kd was > 4 mM (inactive). In the case of C[C@@H]1CC[C@@]2(OC1)OC1CC3C4CC=C5C[C@@H](O)CC[C@]5(C)C4CC[C@]3(C)C1[C@@H]2C (some centres not stated), the Kd is reported as > 4 mM (inactive). For O=C(NCCO)c1ccccc1I, the Kd was > 4 mM (inactive). In the case of O=C(O)c1ccc2nsnc2c1, the Kd is reported as > 4 mM (inactive). With CC(=O)Nc1ccc(CN2CCOCC2)cc1 the Kd was > 4 mM (inactive). O=C(NCc1cccs1)c1nn2cccnc2c1Cl was tested, and the Kd was > 4 mM (inactive). For CC(=O)c1cccc(NC(=O)N2CCc3ccccc3C2)c1, the Kd was > 4 mM (inactive). Cc1ccnc(NS(=O)(=O)c2cccs2)c1 was tested, and the Kd was > 4 mM (inactive). With COC(=O)CC1=Nc2ccccc2NC(=O)C1 the Kd was > 4 mM (inactive). CCOC(=O)C1C(C=C(C)C)C1(C)C (configuration not stated) was tested, and the Kd was > 4 mM (inactive). With CC(=O)OC1CCC2(O)CC1(C)CCC1C2CC1(C)C (configuration not stated) the Kd was > 4 mM (inactive). In the case of COc1cc(/C=C2/NC(=S)NC2=O)cc(Cl)c1O, the Kd is reported as > 4 mM (inactive). For O=C(c1ccncc1)c1ccc(Br)cc1, the Kd was > 4 mM (inactive). In the case of C[C@@H]1OC(O[C@H]2[C@H](OC(=O)[C@]34CCC(C)(C)CC3C3=CCC5[C@@]6(C)CC[C@H](OC7O[C@@H](C)[C@H](O[C@@H]8OC[C@@H](O)[C@H](O)[C@H]8O)[C@@H](O)[C@H]7O)C(C)(C)C6CC[C@@]5(C)[C@]3(C)CC4O)OC[C@H](O)[C@H]2O)[C@H](O)[C@H](O)[C@H]1O[C@@H]1O[C@H](CO)[C@@H](O)[C@H](O)[C@H]1O (some centres not stated), the Kd is reported as > 4 mM (inactive). In the case of O=C(Nc1cccc(O)c1)c1ccccc1, the Kd is reported as > 4 mM (inactive). For C=CCn1c(-c2ccc(O)cc2)n[nH]c1=S, the Kd was > 4 mM (inactive). For COC(=O)c1cccs1, the Kd was > 4 mM (inactive). For CCP(=O)(CC)c1cccc(C)c1, the Kd was > 4 mM (inactive). COc1ccccc1-c1noc(-c2ccco2)n1 was tested, and the Kd was > 4 mM (inactive). With O=C(c1ccco1)N1CCn2c1nc1ccccc12 the Kd was > 4 mM (inactive). O=C(Nc1nnc(-c2cccnc2)o1)c1ccccc1F was tested, and the Kd was > 4 mM (inactive). CC(=O)OC1CCC23CC1(C)CCC2C(C)(C)CC3OC(C)=O (configuration not stated) was tested, and the Kd was > 4 mM (inactive). In the case of O=C1C2C3C=CC(O3)C2C(=O)N1c1ccccc1 (configuration not stated), the Kd is reported as > 4 mM (inactive). For CC(=O)Oc1ccc(/C=C/c2cc(OC(C)=O)cc(OC(C)=O)c2)cc1, the Kd was > 4 mM (inactive). With Nn1c(CN2CCCCC2)nc2ccccc2c1=O the Kd was > 4 mM (inactive). For O=c1c(O)c(-c2ccc(O)cc2O)oc2cc(O)cc(O)c12, the Kd was > 4 mM (inactive). For Cc1noc(C)c1C(=O)NCc1cccs1, the Kd was > 4 mM (inactive). For O=C(c1cccs1)N1CCCc2ccccc21, the Kd was > 4 mM (inactive). For N#Cc1c(N)c(C(=O)c2ccccc2)n2c1CCC2, the Kd was > 4 mM (inactive). With NC(=O)CSc1ccc2nnc(-c3cccs3)n2n1 the Kd was > 4 mM (inactive). In the case of C=C1C([C@]2(C)C(CC(=O)OC)[C@@](C)(COC(C)=O)OC(=O)C[C@@H]2OC(C)=O)[C@@H](OC=O)[C@H](OC(=O)C(O)C(C)CC)[C@@]2(C)[C@H](c3ccoc3)CC(=O)C12O (some centres not stated), the Kd is reported as > 4 mM (inactive). With O=C1NCC(=O)N2CCc3ccccc3C12 (configuration not stated) the Kd was > 4 mM (inactive). OCCNC(=S)Nc1ccc(F)cc1 was tested, and the Kd was > 4 mM (inactive). CCSc1nc(=S)n(CC)c(C)c1C(C)=O was tested, and the Kd was > 4 mM (inactive). Cc1cc(C)n2nc(SCC(=O)c3ccccc3)nc2n1 was tested, and the Kd was > 4 mM (inactive). For CP(C)(=O)CCC(=O)O, the Kd was > 4 mM (inactive). With COc1ccc2[nH]c(O)c(NC(C)=O)c2c1 the Kd was > 4 mM (inactive). In the case of Cc1cc(N)no1, the Kd is reported as > 4 mM (inactive). COC(=O)C[C@H]1C2(C)CC34OC5(C)O[C@@]6([C@H](OC)C(OC(=O)C(C)C)[C@]7(C)C(/C(=C(/OC)C(C)C)C(=O)O[C@H]7c7ccoc7)[C@@]6(O5)[C@H](OC)[C@@]3(OC)C2OC(C)=O)[C@]14C (some centres not stated) was tested, and the Kd was > 4 mM (inactive). In the case of CS(=O)(=O)c1ccc(N)cc1, the Kd is reported as > 4 mM (inactive). For CC(=O)O[C@H]1C(=O)[C@@]2(C)C([C@H](OC(=O)c3ccccc3)[C@]3(O)C[C@H](OC(=O)[C@H](O)[C@@H](NC(=O)c4ccccc4)c4ccccc4)C(C)=C1C3(C)C)[C@]1(OC(C)=O)CO[C@@H]1C[C@@H]2O (some centres not stated), the Kd was > 4 mM (inactive). In the case of NCc1ccccc1N1CCCCC1, the Kd is reported as > 4 mM (inactive). In the case of Cn1c(C(=O)O)ccc1S(N)(=O)=O, the Kd is reported as > 4 mM (inactive). In the case of COc1ccccc1NC(=O)c1ccc(C)s1, the Kd is reported as > 4 mM (inactive). Nc1nc(SCC(=O)c2ccc([N+](=O)[O-])cc2)n[nH]1 was tested, and the Kd was > 4 mM (inactive). For CN1C(=O)Cc2cc(S(N)(=O)=O)ccc21, the Kd was > 4 mM (inactive). In the case of Cc1cc2cc3c(C)cc(=O)oc3c(C)c2o1, the Kd is reported as > 4 mM (inactive). For O=C(NC1=NCCS1)c1ccc2snnc2c1, the Kd was > 4 mM (inactive). For COc1cc(C(=O)O[C@H]2CC[C@@]3(C)[C@@H]4CC[C@H]5[C@]6(O)C[C@H](O)[C@@]7(O)[C@@H](CN8C[C@@H](C)CC[C@H]8[C@@]7(C)O)[C@]6(O)C[C@@]53OC24O)cc(OC)c1OC, the Kd was > 4 mM (inactive). Cn1c(=O)n(C)c2cc(C(N)=O)ccc21 was tested, and the Kd was > 4 mM (inactive). O=C1C2C3C=CC(C3)C2C(=O)N1CCCO (configuration not stated) was tested, and the Kd was > 4 mM (inactive). With O=P(O)(Cc1ccccc1)c1ccccc1 the Kd was > 4 mM (inactive). For CN1CCC[C@H]1c1cccnc1, the Kd was > 4 mM (inactive). In the case of CC(=O)Oc1cc(-c2coc3cc(OC(C)=O)c(OC(C)=O)c(OC(C)=O)c3c2=O)cc(OC(C)=O)c1OC(C)=O, the Kd is reported as > 4 mM (inactive). Cc1cc(C(=O)O)n[nH]1 was tested, and the Kd was > 4 mM (inactive). For COc1ccc(-c2coc3cc(OC)cc(OC)c3c2=O)cc1, the Kd was > 4 mM (inactive). Cn1cnnc1SCCCNC(=O)Nc1ncccn1 was tested, and the Kd was > 4 mM (inactive). In the case of CC(=O)O[C@H]1C[C@@H](OC(C)=O)C(C)(C)C2C[C@@H](OC(C)=O)[C@]3(C)C(CC[C@@]4(C)[C@H](c5ccoc5)C(=O)[C@H]5O[C@]543)[C@]21C (some centres not stated), the Kd is reported as > 4 mM (inactive). O=C(NCc1ccc2c(c1)OCO2)c1cccs1 was tested, and the Kd was > 4 mM (inactive). In the case of O=C(O)CNCC(O)Cn1c2ccccc2c2ccccc21 (configuration not stated), the Kd is reported as > 4 mM (inactive). In the case of Cc1cc(C(=O)Nc2ccccn2)no1, the Kd is reported as > 4 mM (inactive). For CCc1sc(C(=O)NC)cc1Br, the Kd was > 4 mM (inactive). For CCN1C(=O)c2cccc3c(S(N)(=O)=O)ccc1c23, the Kd was > 4 mM (inactive). NC(=O)c1ccsc1NC(=O)C1=COCCO1 was tested, and the Kd was > 4 mM (inactive).
